The results in this text go back to ChEMBL document CHEMBL1201862, “PubChem BioAssay data set” (2004).

Among the test systems are A549; CCRF-CEM; DMS-114; HCT-15; MOLT-4; NCI-H226; NCI-H460; OVCAR-3; RPMI-8226; SF-268; SF-295; SK-MEL-28; SNB-19; SR; TK-10; EKVX; HCC 2998.
Common to all, as to assay: NCI-60 cell line screen, 48 h

SMILES strings stand for the structures.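 48-hour exposure; five concentrations; linearly interpolated endpoints. Abbreviation: GI50, concentration required for 50% inhibition of growth.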 Active and inactive are the calls of the source. No stated cut-off is given here; in the data, active = GI50 up to about 1.1 µM and inactive = higher.

With `CN(C(=O)c1ccco1)C(=S)N1CCN(c2ccccc2)CC1`, the GI50 with A549 is > 100 µM (inactive); in the assay with CCRF-CEM, > 100 µM (inactive); in the assay with DMS-114 it was > 100 µM (inactive); in the assay with HCT-15, more than 100 µM; with MOLT-4 it was > 100 µM (inactive); with NCI-H226, 71.3 µM (inactive). The GI50 with NCI-H460, with OVCAR-3, with RPMI-8226, with SF-268, with SF-295 and in the assay on SK-MEL-28 was > 100 µM (inactive) in each case. For the same molecule, the GI50 with SNB-19, in the assay on SR and in the assay on TK-10 was > 100 µM (inactive) throughout.
In the case of `O=C(O)CSc1nnc(-c2ccccc2O)[nH]1`, the GI50 was > 100 µM (inactive) with A549; > 100 µM (inactive) in the assay on CCRF-CEM; > 100 µM (inactive) in the assay with DMS-114; > 100 µM (inactive) in the assay on EKVX; > 100 µM (inactive) in the assay on HCC 2998; more than 100 µM in the assay on HCT-15. For the same molecule, the GI50 in the assay with MOLT-4, in the assay on NCI-H226, in the assay with NCI-H460, in the assay with OVCAR-3, in the assay with RPMI-8226 and in the assay on SF-268 was > 100 µM (inactive) throughout. For the same molecule, the GI50 in the assay with SF-295, with SK-MEL-28, with SNB-19, in the assay with SR and with TK-10 was > 100 µM (inactive) throughout.
With `CC1=NN(C(=O)Nc2ccccc2)C(=O)C2CCC(=O)N12` (stereo unspecified), the GI50 was > 100 µM (inactive) with A549; > 100 µM (inactive) in the assay on CCRF-CEM; > 100 µM (inactive) in the assay with DMS-114; > 100 µM (inactive) with EKVX; > 100 µM (inactive) in the assay on HCC 2998; more than 100 µM in the assay with HCT-15. Moreover, the GI50 in the assay with MOLT-4, in the assay with NCI-H460, in the assay with OVCAR-3, in the assay with RPMI-8226, in the assay on SF-268 and in the assay on SF-295 was > 100 µM (inactive) in each case. Further, the GI50 with SK-MEL-28, with SNB-19, in the assay with SR and with TK-10 was > 100 µM (inactive) each time.
`c1ccc(SC(Sc2ccccc2)=C2CCC2)cc1`: the GI50 with A549 is > 100 µM (inactive); in the assay with CCRF-CEM, > 100 µM (inactive); in the assay on DMS-114, > 100 µM (inactive); with EKVX it was > 100 µM (inactive); in the assay on HCT-15, more than 100 µM; with MOLT-4 it was > 100 µM (inactive). Besides, the GI50 in the assay on NCI-H460, with OVCAR-3, in the assay on RPMI-8226, in the assay on SF-268, with SF-295 and in the assay with SK-MEL-28 was > 100 µM (inactive) each time. For the same molecule, the GI50 in the assay on SNB-19, in the assay on SR and in the assay on TK-10 was > 100 µM (inactive) each time.
`C=CCc1ccc(O)c(-c2cc(C3Oc4c(-c5cc(CC=C)ccc5O)cc(O)cc4[C@@H]3CO)ccc2O)c1` (stereo partly specified): the GI50 with A549 is 56 µM (inactive); in the assay with CCRF-CEM it was 20.7 µM (inactive); in the assay with DMS-114, 14.9 µM (inactive); in the assay with EKVX, 64.4 µM (inactive); in the assay with HCC 2998, 22.1 µM (inactive); in the assay on HCT-15, 15.8 µM. The GI50 is 53.8 µM (inactive) in the assay on NCI-H226; 66.2 µM (inactive) in the assay on NCI-H460; 20.1 µM (inactive) in the assay with OVCAR-3; 24.9 µM (inactive) in the assay on RPMI-8226; 30.3 µM (inactive) in the assay with SF-268; 48.3 µM (inactive) with SF-295. Moreover, the GI50 with SK-MEL-28 was 26.7 µM (inactive); with SNB-19, 28.5 µM (inactive); in the assay with SR it was 14.4 µM (inactive); in the assay on TK-10 it was 66.1 µM (inactive).
In the case of `CCCCCCCCCCCCCCCC(=O)NCC(COP(=O)([O-])OCC[N+](C)(C)C)OCC` (stereo unspecified), the GI50 with A549 was 21 µM (inactive); in the assay with DMS-114, 16 µM (inactive); with EKVX, 19.2 µM (inactive); in the assay on HCC 2998 it was 1.55 µM (inactive); with HCT-15 it was 6.4 µM; in the assay with MOLT-4, 3.24 µM (inactive). Moreover, the GI50 in the assay with NCI-H226 was 3.12 µM (inactive); in the assay with NCI-H460, 2.96 µM (inactive); in the assay with OVCAR-3, 6.25 µM (inactive); in the assay with RPMI-8226, 2.9 µM (inactive); in the assay on SF-268 it was 12.8 µM (inactive); in the assay with SF-295, 5.2 µM (inactive). For the same molecule, the GI50 in the assay on SK-MEL-28 was 21 µM (inactive); with SNB-19, 3.71 µM (inactive); with SR, 4.58 µM (inactive); in the assay with TK-10, 1.63 µM (inactive).
For the molecule `O=C1C(=Cc2ccc(F)cc2)C(=O)c2ccccc21`, the GI50 with A549 was > 100 µM (inactive); in the assay with CCRF-CEM it was 41.2 µM (inactive); with DMS-114, > 100 µM (inactive); in the assay with EKVX it was > 100 µM (inactive); in the assay with HCC 2998, > 100 µM (inactive); in the assay with HCT-15 it was more than 100 µM. In addition, the GI50 is 42 µM (inactive) with MOLT-4; > 100 µM (inactive) in the assay with NCI-H226; > 100 µM (inactive) in the assay on NCI-H460; > 100 µM (inactive) in the assay with OVCAR-3; 49.8 µM (inactive) in the assay with RPMI-8226; > 100 µM (inactive) in the assay with SF-268. For the same molecule, the GI50 in the assay with SF-295, with SK-MEL-28, in the assay on SNB-19 and in the assay with TK-10 was > 100 µM (inactive) each time.
As to `OC12CCC3(OC4CCCCO4)c4ccccc4C3C1c1ccccc12` (stereo unspecified), the GI50 was 85.1 µM (inactive) with A549; 58.9 µM (inactive) in the assay on CCRF-CEM; 87.5 µM (inactive) in the assay with DMS-114; > 100 µM (inactive) in the assay with EKVX; 24.2 µM with HCT-15; 35.4 µM (inactive) with MOLT-4. Further, the GI50 in the assay with NCI-H226 is > 100 µM (inactive); with NCI-H460, 35.2 µM (inactive); with RPMI-8226, 36 µM (inactive); in the assay with SF-268, 65.9 µM (inactive); in the assay with SF-295, 52.5 µM (inactive); in the assay on SK-MEL-28, 76 µM (inactive). Further, the GI50 with SNB-19 was 61.9 µM (inactive); with SR it was 37.2 µM (inactive); in the assay on TK-10, > 100 µM (inactive).
Turning to `C/C(=N/O)c1ccc2c(c1)/C(=N/O)c1cc(/C(C)=N/O)ccc1-2`, the GI50 was 10.6 µM (inactive) in the assay with A549; 22.4 µM (inactive) in the assay on DMS-114; 7.13 µM (inactive) in the assay on EKVX; 15.3 µM (inactive) in the assay with HCC 2998; 14.1 µM in the assay with HCT-15; 2.49 µM (inactive) in the assay on MOLT-4. The GI50 in the assay on NCI-H226 is 11.2 µM (inactive); in the assay on NCI-H460, 17.7 µM (inactive); with OVCAR-3, 20.3 µM (inactive); in the assay with RPMI-8226, 26.5 µM (inactive); in the assay on SF-268, 14.9 µM (inactive); in the assay on SF-295 it was 15.3 µM (inactive). For the same molecule, the GI50 in the assay on SK-MEL-28 was 17.3 µM (inactive); in the assay on SNB-19, 13.8 µM (inactive); in the assay with SR it was 3.45 µM (inactive); with TK-10 it was > 10 µM (inactive).
As for `COc1ccc(NC(=O)CC/C(CC(=O)c2ccccc2Cl)=N\Nc2nnc(C)n2N)cc1`, the GI50 in the assay on A549 is > 100 µM (inactive); in the assay on CCRF-CEM, > 100 µM (inactive); with DMS-114, > 100 µM (inactive); in the assay with EKVX, > 100 µM (inactive); in the assay with HCC 2998, > 100 µM (inactive); with HCT-15, more than 100 µM. The GI50 in the assay on MOLT-4, in the assay with NCI-H226, in the assay with NCI-H460, in the assay with SF-268, with SF-295 and in the assay on SK-MEL-28 was > 100 µM (inactive) each time. For the same molecule, the GI50 in the assay on SNB-19, in the assay with SR and in the assay with TK-10 was > 100 µM (inactive) each time.
Turning to `COc1ccc(C(=O)C(CC2C(=O)NC(=O)NC2=O)c2ccc(OC)cc2)cc1` (stereo unspecified), the GI50 in the assay with A549 is > 100 µM (inactive); with CCRF-CEM, > 100 µM (inactive); in the assay on DMS-114, > 100 µM (inactive); in the assay on EKVX, > 100 µM (inactive); in the assay on HCC 2998, > 100 µM (inactive); with HCT-15, more than 100 µM. The GI50 in the assay with MOLT-4, in the assay with NCI-H226, in the assay on NCI-H460, in the assay with OVCAR-3, in the assay with SF-268 and in the assay on SF-295 was > 100 µM (inactive) each time. Further, the GI50 in the assay on SK-MEL-28, in the assay on SNB-19, with SR and in the assay with TK-10 was > 100 µM (inactive) each time.
With `NC(=O)c1nc(-c2ccc(Cl)c(Cl)c2)nc2ccccc12`, the GI50 with A549 is > 21.4 µM (inactive); in the assay on CCRF-CEM, > 100 µM (inactive); in the assay on DMS-114, > 20.4 µM (inactive); with EKVX, > 41.6 µM (inactive); in the assay with HCT-15, more than 100 µM; in the assay on MOLT-4, > 100 µM (inactive). Further, the GI50 with NCI-H226 is 18 µM (inactive); in the assay on NCI-H460, > 55.7 µM (inactive); with RPMI-8226 it was > 21.1 µM (inactive); with SF-268, 19.1 µM (inactive); in the assay on SNB-19, 17.8 µM (inactive); in the assay with SR, > 100 µM (inactive). Further, in the assay on TK-10, the GI50 was 22.6 µM (inactive).
Take `CCC12C=CCN(CCc3c([nH]c4ccccc34)/C=C\1)C2` (stereo unspecified): the GI50 in the assay with A549 was > 100 µM (inactive); in the assay on CCRF-CEM it was > 100 µM (inactive); in the assay on DMS-114 it was > 100 µM (inactive); in the assay with EKVX it was > 100 µM (inactive); in the assay on HCC 2998, > 100 µM (inactive); in the assay on HCT-15, more than 100 µM. The GI50 with MOLT-4, in the assay with NCI-H226, in the assay with NCI-H460, in the assay with OVCAR-3, in the assay on RPMI-8226 and in the assay on SF-268 was > 100 µM (inactive) in each case. Also, the GI50 with SF-295, with SNB-19 and with SR was > 100 µM (inactive) in each case.
